Test results: US12064426B2, “Selective inhibitors of ROCK1 and ROCK2 protein kinases and uses thereof” (GENOSCO Inc., priority 2021, dated 2024)

Experiments:
[1] = molecular target: T1, Recombinant ROCK1 (amino acids 1-477) (Homo sapiens, UniProt Q13464); assay: ROCK inhibition assay, LANCE Ultra TR-FRET kinase assay (ROCK1); assay type: biochemical; conditions: 1 μM ATP, 50 nM ULight-CREBtide substrate
T1 construct: Recombinant ROCK1 (amino acids 1-477); by word order, ROCK1 from Carna Biosciences
T1 sequence (Q13464 1-477): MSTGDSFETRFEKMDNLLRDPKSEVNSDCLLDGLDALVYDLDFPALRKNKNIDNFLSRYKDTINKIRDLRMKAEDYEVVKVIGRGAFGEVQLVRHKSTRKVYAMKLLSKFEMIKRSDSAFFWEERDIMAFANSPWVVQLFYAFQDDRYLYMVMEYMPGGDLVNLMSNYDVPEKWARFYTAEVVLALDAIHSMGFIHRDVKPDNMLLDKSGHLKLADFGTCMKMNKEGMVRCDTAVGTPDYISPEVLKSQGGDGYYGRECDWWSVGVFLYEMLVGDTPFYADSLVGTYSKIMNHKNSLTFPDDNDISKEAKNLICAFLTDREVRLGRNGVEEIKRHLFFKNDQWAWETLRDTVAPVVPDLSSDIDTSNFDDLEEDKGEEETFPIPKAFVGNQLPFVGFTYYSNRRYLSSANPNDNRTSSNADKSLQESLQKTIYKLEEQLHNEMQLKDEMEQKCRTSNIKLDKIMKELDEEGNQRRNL
Experimental: (§1) Kinase IC50 was determined through an in vitro assay based on LANCE Ultra TR-FRET (Time-Resolved Fluorescence Resonance Energy Transfer) homogeneous technologies method (Perkin Elmer). Recombinant ROCK1 (amino acids 1-477) and ROCK2 (amino acids 5-554) proteins were purchased from Carna Biosciences and SignalChem. Compound activities were measured by Envision and IC50s were calculated. The assays were performed in white LUMITRAC™ 200 96 well half-area microplates from Greiner Bio-One. The kinase reaction buffer consisted of 50 mM HEPES pH 7.5, 1 mM EGTA, 10 mM MgCl2, 2 mM DTT and 0.01% Tween-20. Kinases were incubated with 50 nM (ULight-CREBtide) substrate in the presence of 1 (ROCK1) or 4 (ROCK2) μM ATP. The kinase reaction was carried out for 1 hour before addition of a stopping buffer to a final of 10 mM EDTA and 0.6 nM of LANCE Ultra Europium anti-phospho-CREB (Ser133) antibody (PerkinElmer TRF0200) in LANCE detection buffer. All assay incubations were performed at room temperature, and the microplates were sealed with polyester film during that time. The reaction was incubated for 1 hour, and the signal was read in Envision in TR-FRET mode (excitation at 320 nm and emission at 615/665 nm).
(§2) As used herein, a way to describe potency of inhibitory activity (nM) is a value of inhibitory activity at 50% (IC50).

[2] = molecular target: T2, Recombinant ROCK2 (amino acids 5-554) (Homo sapiens, UniProt O75116); assay: ROCK inhibition assay, LANCE Ultra TR-FRET kinase assay (ROCK2); assay type: biochemical; conditions: 4 μM ATP, 50 nM ULight-CREBtide substrate
T2 construct: ROCK2 (amino acids 5-554); by word order, ROCK2 from SignalChem
T2 sequence (O75116 5-554): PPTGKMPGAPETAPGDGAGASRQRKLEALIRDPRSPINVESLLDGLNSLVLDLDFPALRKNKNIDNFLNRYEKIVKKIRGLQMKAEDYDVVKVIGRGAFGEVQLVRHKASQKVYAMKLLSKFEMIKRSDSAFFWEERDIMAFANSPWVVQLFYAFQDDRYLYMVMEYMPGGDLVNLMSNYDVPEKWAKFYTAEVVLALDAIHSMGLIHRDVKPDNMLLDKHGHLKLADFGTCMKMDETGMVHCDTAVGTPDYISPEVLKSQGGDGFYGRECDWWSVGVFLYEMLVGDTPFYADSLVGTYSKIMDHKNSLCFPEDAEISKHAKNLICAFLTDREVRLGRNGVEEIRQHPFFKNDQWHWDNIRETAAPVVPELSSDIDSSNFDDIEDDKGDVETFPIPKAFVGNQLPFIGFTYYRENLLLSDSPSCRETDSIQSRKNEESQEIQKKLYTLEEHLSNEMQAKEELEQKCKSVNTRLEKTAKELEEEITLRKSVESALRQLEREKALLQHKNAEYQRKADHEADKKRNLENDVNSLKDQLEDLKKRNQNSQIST
Experimental: as §1, §2

Structure (SMILES) | IC50 [1] [nM] | IC50 [2] [nM]
O=C(NCC1COC1)c1cccc(Cn2ccc3cc(-c4c[nH]nc4Cl)ccc3c2=O)c1 [Compound 63] | 11 to 100 | < 10
CN1CCC(CNC(=O)c2cccc(Cn3ccc4cc(-c5c[nH]nc5Cl)ccc4c3=O)c2)CC1 [Compound 64] | < 10 | < 10
O=C(NCCO)c1cc(F)cc(Cn2ccc3cc(-c4c[nH]nc4Cl)ccc3c2=O)c1 [Compound 65] | 101 to 500 | 10 to 100
O=C(N[C@H]1CC[C@@H](O)CC1)c1cc(F)cc(Cn2ccc3cc(-c4c[nH]nc4Cl)ccc3c2=O)c1 [Compound 66] | 11 to 100 | < 10
Cc1nocc1-c1ccc2c(=O)n(Cc3cccc(C(=O)NCC(F)(F)F)c3)ccc2c1 [Compound 67] | 11 to 100 | 10 to 100
Cc1nocc1-c1ccc2c(=O)n(Cc3cccc(C(=O)NCC4CC4)c3)ccc2c1 [Compound 68] | 11 to 100 | 10 to 100
Cc1nocc1-c1ccc2c(=O)n(Cc3cccc(C(=O)NCCN4CCOCC4)c3)ccc2c1 [Compound 69] | 101 to 500 | 10 to 100
Cc1nocc1-c1ccc2c(=O)n(Cc3cccc(C(=O)NCCN4CCN(C)CC4)c3)ccc2c1 [Compound 70] | < 10 | < 10
Cc1nocc1-c1ccc2c(=O)n(Cc3cccc(C(=O)NCC4COC4)c3)ccc2c1 [Compound 71] | 11 to 100 | < 10
Cc1nocc1-c1ccc2c(=O)n(Cc3cccc(C(=O)N[C@H]4C[C@@H](O)C4)c3)ccc2c1 [Compound 72] | 101 to 500 | 10 to 100
Cc1nocc1-c1ccc2c(=O)n(Cc3cccc(C(=O)N[C@H]4C[C@H](O)C4)c3)ccc2c1 [Compound 73] | 101 to 500 | 10 to 100
Cc1nocc1-c1ccc2c(=O)n(Cc3cccc(C(=O)N[C@H]4CC[C@@H](O)CC4)c3)ccc2c1 [Compound 74] | 101 to 500 | 10 to 100
Cc1nocc1-c1ccc2c(=O)n(Cc3cccc(C(=O)NCc4ccc(F)nc4)c3)ccc2c1 [Compound 76] | 11 to 100 | < 10
Cc1nocc1-c1ccc2c(=O)n(Cc3cccc(C(=O)NCC4CCN(C)CC4)c3)ccc2c1 [Compound 78] | 11 to 100 | < 10
Cc1nocc1-c1ccc2c(=O)n(Cc3cccc(C(=O)NCC4CCNCC4)c3)ccc2c1 [Compound 79] | 11 to 100 | < 10
Cc1nocc1-c1ccc2c(=O)n(Cc3cccc(C(=O)NCC4CCN(C5CC5)CC4)c3)ccc2c1 [Compound 80] | 101 to 500 | 10 to 100
Cc1nocc1-c1ccc2c(=O)n(Cc3cccc(C(=O)NCC4CCN(C(C)C)CC4)c3)ccc2c1 [Compound 81] | 101 to 500 | 10 to 100
Cc1nocc1-c1ccc2c(=O)n(Cc3cccc(C(=O)NCC4CCN(CC(F)(F)F)CC4)c3)ccc2c1 [Compound 83] | 101 to 500 | 10 to 100
Cc1nocc1-c1ccc2c(=O)n(Cc3cccc(C(=O)NCC4CCN(C5COC5)CC4)c3)ccc2c1 [Compound 84] | 101 to 500 | 10 to 100

Structure (SMILES) | IC50 [1] [nM] | IC50 [2] [nM]
Cc1nocc1-c1ccc2c(=O)n(Cc3cccc(C(=O)NC4CCNCC4)c3)ccc2c1 [Compound 85] | 11 to 100 | < 10
Cc1nocc1-c1ccc2c(=O)n(Cc3cccc(C(=O)NC4CCN(CC(F)(F)F)CC4)c3)ccc2c1 [Compound 87] | 11 to 100 | < 10
Cc1nocc1-c1ccc2c(=O)n(Cc3cccc(C(=O)NC4CCN(C5COC5)CC4)c3)ccc2c1 [Compound 88] | 101 to 500 | 10 to 100
Cc1nocc1-c1ccc2c(=O)n(Cc3cccc(C(=O)Nc4ccn(C)n4)c3)ccc2c1 [Compound 89] | > 501 | 100 to 500
Cc1nocc1-c1ccc2c(=O)n(Cc3cccc(C(=O)Nc4ccon4)c3)ccc2c1 [Compound 90] | > 501 | 100 to 500
Cc1nocc1-c1ccc2c(=O)n(Cc3cccc(C(=O)Nc4ccc5c(c4)CCOC5)c3)ccc2c1 [Compound 91] | 11 to 100 | < 10
Cc1nocc1-c1ccc2c(=O)n(Cc3cccc(C(=O)Nc4ccc5c(c4)COCC5)c3)ccc2c1 [Compound 92] | 11 to 100 | < 10
Cc1nocc1-c1ccc2c(=O)n(Cc3cccc(C(=O)Nc4nc5c(s4)CCNC5)c3)ccc2c1 [Compound 93] | < 10 | < 10
Cc1nocc1-c1ccc2c(=O)n(Cc3cccc(C(=O)Nc4nc5c(s4)CCN(C)C5)c3)ccc2c1 [Compound 94] | < 10 | < 10
Cc1nocc1-c1ccc2c(=O)n(Cc3cccc(C(=O)Nc4nc5c(s4)CCN(C(C)C)C5)c3)ccc2c1 [Compound 95] | 11 to 100 | < 10
Cc1nocc1-c1ccc2c(=O)n(Cc3cccc(C(=O)Nc4ccc5c(c4)CCNC5)c3)ccc2c1 [Compound 96] | < 10 | < 10
Cc1nocc1-c1ccc2c(=O)n(Cc3cccc(C(=O)Nc4ccc5c(c4)CCN(C)C5)c3)ccc2c1 [Compound 97] | < 10 | < 10
Cc1nocc1-c1ccc2c(=O)n(Cc3cccc(C(=O)Nc4ccc5c(c4)CCN(C(C)C)C5)c3)ccc2c1 [Compound 98] | < 10 | < 10
Cc1nocc1-c1ccc2c(=O)n(Cc3cccc(C(=O)Nc4ccc5c(c4)CCN(C4CC4)C5)c3)ccc2c1 [Compound 99] | < 10 | < 10
Cc1nocc1-c1ccc2c(=O)n(Cc3cccc(C(=O)Nc4ccc5c(c4)CNCC5)c3)ccc2c1 [Compound 100] | < 10 | < 10
Cc1nocc1-c1ccc2c(=O)n(Cc3cccc(C(=O)Nc4ccc5c(c4)CN(C)CC5)c3)ccc2c1 [Compound 101] | < 10 | < 10
Cc1nocc1-c1ccc2c(=O)n(Cc3cccc(C(=O)NCCO)c3)ccc2c1 [Compound 102] | > 501 | 10 to 100
Cn1nccc1-c1ccc2c(=O)n(Cc3cccc(C(=O)NCC(F)(F)F)c3)ccc2c1 [Compound 103] | 101 to 500 | 10 to 100
Cn1nccc1-c1ccc2c(=O)n(Cc3cccc(C(=O)NC4CCOCC4)c3)ccc2c1 [Compound 104] | 101 to 500 | 10 to 100

Structure (SMILES) | IC50 [1] [nM] | IC50 [2] [nM]
Cn1nccc1-c1ccc2c(=O)n(Cc3cccc(C(=O)NC4CCNCC4)c3)ccc2c1 [Compound 105] | < 10 | < 10
CN1CCC(NC(=O)c2cccc(Cn3ccc4cc(-c5ccnn5C)ccc4c3=O)c2)CC1 [Compound 106] | < 10 | < 10
Cn1nccc1-c1ccc2c(=O)n(Cc3cccc(C(=O)NC4CCN(C5COC5)CC4)c3)ccc2c1 [Compound 109] | 101 to 500 | 10 to 100
Cn1nccc1-c1ccc2c(=O)n(Cc3cccc(C(=O)NC4COC4)c3)ccc2c1 [Compound 110] | 101 to 500 | < 10
Cn1nccc1-c1ccc2c(=O)n(Cc3cccc(C(=O)NCC4COC4)c3)ccc2c1 [Compound 111] | 101 to 500 | < 10
Cn1nccc1-c1ccc2c(=O)n(Cc3cccc(C(=O)NCC4CC(O)C4)c3)ccc2c1 (stereo not shown) [Compound 112] | 101 to 500 | 10 to 100
CN1CC(CNC(=O)c2cccc(Cn3ccc4cc(-c5ccnn5C)ccc4c3=O)c2)C1 [Compound 113] | 11 to 100 | < 10
Cn1nccc1-c1ccc2c(=O)n(Cc3cccc(C(=O)NCc4ccc(F)nc4)c3)ccc2c1 [Compound 114] | 11 to 100 | < 10
Cn1nccc1-c1ccc2c(=O)n(Cc3cccc(C(=O)N[C@H]4CC[C@H](O)CC4)c3)ccc2c1 [Compound 115] | 101 to 500 | 10 to 100
Cn1nccc1-c1ccc2c(=O)n(Cc3cccc(C(=O)N[C@H]4CC[C@@H](O)CC4)c3)ccc2c1 [Compound 116] | 101 to 500 | 10 to 100
Cn1nccc1-c1ccc2c(=O)n(Cc3cccc(C(=O)NCc4ccnc(F)c4)c3)ccc2c1 [Compound 117] | 101 to 500 | 10 to 100
CC(C)N1CCC(NC(=O)c2cccc(Cn3ccc4cc(-c5ccnn5C)ccc4c3=O)c2)CC1 [Compound 118] | 101 to 500 | 10 to 100
CN(C)CCNC(=O)c1cccc(Cn2ccc3cc(-c4ccnn4C)ccc3c2=O)c1 [Compound 119] | 11 to 100 | < 10
COCCNC(=O)c1cccc(Cn2ccc3cc(-c4ccnn4C)ccc3c2=O)c1 [Compound 120] | 101 to 500 | 100 to 500
CN1CCc2sc(NC(=O)c3cccc(Cn4ccc5cc(-c6ccnn6C)ccc5c4=O)c3)nc2C1 [Compound 121] | 11 to 100 | < 10
Cn1nccc1-c1ccc2c(=O)n(Cc3cccc(C(=O)Nc4nc5c(s4)CCNC5)c3)ccc2c1 [Compound 122] | < 10 | < 10
CN1CCc2cc(NC(=O)c3cccc(Cn4ccc5cc(-c6ccnn6C)ccc5c4=O)c3)ccc2C1 [Compound 124] | < 10 | < 10
Cn1nccc1-c1ccc2c(=O)n(Cc3cccc(C(=O)Nc4ccc5c(c4)CNCC5)c3)ccc2c1 [Compound 125] | < 10 | < 10
